Active and inactive are the calls of the source. No cut-off for these calls is given here.

The assay addresses T1, Solute carrier family 2, facilitated glucose transporter member 4 (Rattus norvegicus) (UniProt P19357).
T1 sequence (whole entry): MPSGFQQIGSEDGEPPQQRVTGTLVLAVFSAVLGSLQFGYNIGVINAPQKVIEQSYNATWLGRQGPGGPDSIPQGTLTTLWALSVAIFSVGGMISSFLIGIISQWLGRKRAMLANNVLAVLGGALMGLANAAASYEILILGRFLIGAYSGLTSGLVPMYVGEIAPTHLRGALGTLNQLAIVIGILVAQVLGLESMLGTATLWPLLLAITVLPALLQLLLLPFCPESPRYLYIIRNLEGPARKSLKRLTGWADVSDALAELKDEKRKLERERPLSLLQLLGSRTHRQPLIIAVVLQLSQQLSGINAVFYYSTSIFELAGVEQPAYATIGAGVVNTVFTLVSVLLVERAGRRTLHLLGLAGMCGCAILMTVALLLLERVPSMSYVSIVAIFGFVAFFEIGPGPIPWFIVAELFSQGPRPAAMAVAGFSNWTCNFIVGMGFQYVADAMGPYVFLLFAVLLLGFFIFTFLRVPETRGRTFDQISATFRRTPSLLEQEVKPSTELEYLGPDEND
Nature of the assay: Enhancement of GLUT4 translocation in rat L6 cells expressing pIRAP-mOrange cDNAs at 10 uM after 10 mins by fluorescence assay relative to control. It counts as cell-based.
Consider `O=C(O)c1cc(O)c(O)c(O)c1`, for which the outcome was inactive.
Still for that read-out and setting: as for `O=c1c(O[C@@H]2O[C@H](CO)[C@@H](O)[C@H](O)[C@H]2O)c(-c2ccc(O)c(O)c2)oc2cc(O)cc(O)c12`, the entry is “inactive”.
As for `C[C@H]1[C@H](C)CC[C@]2(C(=O)O)CC[C@]3(C)C(=CC[C@@H]4[C@@]5(C)CC[C@H](O)C(C)(C)[C@@H]5CC[C@]43C)[C@H]12`, the fold change (FC) was 0.7.
As to `CC(C)CC1C2=C(Oc3cc(O)c(C(=O)CCc4ccccc4)c(O)c31)C(C)(C)C(=O)C(C)(C)C2=O` (racemic), the fold change (FC) turned out to be 0.49.
The same measure, in the same setting: as for `C[C@H]1[C@H](C)CC[C@]2(C(=O)O)CC[C@]3(C)C(=CC[C@@H]4[C@@]5(C)C[C@@H](O)[C@H](O)C(C)(C)[C@@H]5CC[C@]43C)[C@H]12`, the figure is 1.78; as for `C=C(C)[C@@H]1CC[C@]2(C(=O)O)CC[C@]3(C)[C@H](CC[C@@H]4[C@@]5(C)CC[C@H](O)C(C)(C)[C@@H]5CC[C@]43C)[C@@H]12`, 2.38; as for `C[C@H]1[C@H](C)CC[C@]2(C(=O)O)CC[C@]3(C)C(=CC[C@@H]4[C@@]5(C)C[C@@H](O)[C@H](O)[C@@](C)(CO)[C@@H]5[C@H](O)C[C@]43C)[C@H]12`, 0.7.
In the case of `C[C@@H]1CC[C@]2(C(=O)O)CC[C@]3(C)C(=CC[C@@H]4[C@@]5(C)C[C@@H](O)[C@@H](O)C(C)(C)[C@@H]5CC[C@]43C)[C@@H]2[C@]1(C)O`, the fold change (FC) came to 0.7.
For the compound `O=C1c2c(O)cc(O)cc2O[C@@H](c2ccc(O)cc2)[C@@H]1O`, the result was inactive.
As to `O=c1c(OC2O[C@H](CO)[C@@H](O)[C@H](O)[C@H]2O)c(-c2cc(O)c(O)c(O)c2)oc2cc(O)cc(O)c12` (some centres not stated), the result was inactive.
On to `CC1(C)CC[C@]2(C(=O)O)CC[C@]3(C)C(=CC[C@@H]4[C@@]5(C)CC[C@H](O)C(C)(C)[C@@H]5CC[C@]43C)[C@@H]2C1`, for which the fold change (FC) was determined as 0.7.
`C[C@H]1[C@H](C)CC[C@]2(C(=O)O)CC[C@]3(C)C(=CC[C@@H]4[C@@]5(C)C[C@@H](O)[C@H](O)[C@@](C)(CO)[C@@H]5CC[C@]43C)[C@H]12`: the fold change (FC) amounted to 0.47.

These data come from ChEMBL document CHEMBL3297643, “Chemical constituents from Eucalyptus citriodora Hook leaves and their glucose transporter 4 translocation activities” (Bioorg Med Chem Lett, 2014).
